Series [1] relates to human MDA-MB-468 TNBC or MDA-MB-231 TNBC xenografts. Nature of the series: Anti-tumor activity of pre-targeted PEG engager in xenografts. The format is in vivo, SCID mice. As to conditions: i.v. once a week for 4 weeks; engager 5 h before drug; free doxorubicin 3 mg/kg, Doxisome 1 mg/kg. As for the experimental part: Anti-tumor activity of PEG engager was tested in mice bearing human MDA-MB-468 TNBC or MDA-MB-231 TNBC xenografts following the procedure below.
Groups of severe combined immunodeficiency (SCID) mice bearing 44.7±10.7 mm^3 MDA-MB-231 (n=6) or 84.3±4.3 mm^3 subcutaneous MDA-MB-468 (n=8) tumors on their right flanks were intravenously injected with PBS or with 6 or 18 mg/kg PEG engagers. After 5 h, the mice were intravenously administrated with free doxorubicin (3 mg/kg) or Doxisome (1 mg/kg or 3 mg/kg). This treatment was repeated once a week for a total of 4 weeks. Tumour sizes were measured every 7 days.

The conditions of series [2]: SCID mice; cited from earlier work.

Regarding `COc1cccc2c1C(=O)c1c(O)c3c(c(O)c1C2=O)C[C@@](O)(C(=O)CO)C[C@@H]3O[C@H]1C[C@H](N)[C@H](O)[C@H](C)O1` [doxorubicin], in series [1], the tumor growth entry is reported as “suppressed tumor growth”. For the same molecule, in series [2], the maximum-tolerated dose is 2.5 to 3 mg/kg.

The values are drawn from patent US20210292438A1, “CONDITIONAL INTERNALIZATION OF PEGYLATED AGENTS BY PRETARGETING BI-SPECIFIC PEG-BINDING ANTIBODIES FOR DIAGNOSIS AND THERAPY” (ACADEMIA SINICA, priority 2017, published 2021).
